{"source": "patent US7192922B2", "about": "“Method of treating left ventricular dysfunction” (Allegheny-Singer Research Institute, priority 2002, dated 2007)", "key": {"[1]": {"test_system": "normal dogs and dogs with advanced dilated cardiomyopathy", "experiment": "Acute graded infusion, hemodynamic effects in conscious chronically instrumented dogs", "format": "in vivo, dog", "conditions": "for effects on left ventricular pressure, left ventricular dP/dt, cardiac output, heart rate: graded infusions for ten minutes, six normal dogs and six dogs with advanced DCM", "source_text": "FIGS. 2a–2d show the dose response to rGLP-1 in normal conscious dogs and conscious dogs with advanced DCM compared to the response to the sympathomimetic, dobutamine.\nFIG. 1 illustrates characteristic instrumentation of conscious, chronically instrumented dogs studied in the laboratory. Under sterile surgical technique, the animals are instrumented as indicated and allowed to recover fully from their surgery. At the time, they are taught to lie quietly on the experimental table before study. To determine if acute GLP-1 (7–36 amide) infusion is associated with hemodynamic effects in conscious chronically instrumented dogs, graded infusions for ten minutes at doses of 1.25, 2.5, 5, 10 and 20 pmol/kg/min in six normal dogs and in six dogs with advanced dilated cardiomyopathy were studied. The response of the graded infusion to the classic iontopic agent, Dobutamine, (2.5, 5, 7.5, 10 and 15 μ/kg/min.) was compared. […] Nikolaidis, L A, Hentosz, T, Doverspike, A, et al., “Catecholamine stimulation is associated with impaired myocardial O2 utilization in heart failure,” Cardiovas. Res., 2002;53:392–404, incorporated by reference herein."}, "restrained rats": {"test_system": "restrained rats", "conditions": "rat, in vivo, sc; cited from earlier work"}, "plasma insulin": {"test_system": "plasma insulin", "conditions": "cited from earlier work; for plasma insulin levels: GIP 2.0, GLP-1 1.5 pmol·kg−1·min−1"}, "normal dogs": {"test_system": "normal dogs", "experiment": "48 hour continuous intravenous infusion, hemodynamic effect in normal dogs", "format": "in vivo, dog", "conditions": "1.5 pmol/kg/min i.v. 48 hours; five normal dogs", "method": "(§1) A 48 hour continuous intravenous infusion of GLP-1 (7–36 amide), (1.5 pmol/kg/min) in five normal dogs to determine the hemodynamic effect of chronic infusion in the absence of dilated cardiomyopathy was conducted. […] FIGS. 3–5 illustrates the effects of GLP-1 (7–36 amide) infusion (1.5 pmol/kg/min) intravenously for 48 hours in 20 conscious, chronically instrumented animals with advanced heart failure. These effects have been compared to similarly instrumented animals with advanced heart failure that received a control saline infusion of equal volume ([…]) illustrate the hemodynamic effects of chronic GLP-1 infusion in advanced DCM. GLP-1 (7–36 amide) infusion was associated with a restoration of left ventricular pressure, improvement in contractility, improvement in cardiac output, and reduction in heart rate and LVEDP. […] GLP-1 was associated with restoration of endothelial dependent vaso dilatation response to acetylcholine (FIG. 7). […] GLP-1 had little effect on increased plasma insulin levels in the setting of euglycemia."}, "[2]": {"test_system": "conscious dogs with advanced DCM", "experiment": "48 hour intravenous infusion, hemodynamics and myocardial sympathetic activity in conscious dogs with advanced heart failure (DCM)", "format": "in vivo, dog", "source_text": "FIGS. 3a–3d show the effects of r GLP-1 on LV systolic pressure, LV end diastolic pressure, LV dP/dt, and heart rate in conscious dogs with advanced DCM compared to saline control.\nFIGS. 4a–4d show the effects of rGLP-1 on cardiac output, stroke volume, LV ejection fraction, systemic vascular resistance in conscious dogs with advanced DCM compared to saline control.\nFIGS. 5a and 5b show the effects of rGLP-1 on stroke work and LV external efficiency in conscious dogs with advanced DCM compared to saline control.\nFIGS. 6a and 6b show the effects of rGLP-1 on transmyocardial norepinephrine uptake as a reflection of sympathetic drive to the myocardium in conscious dogs with advanced DCM compared to saline controls.\nas §1"}, "[3]": {"test_system": "myocardial substrate uptake", "experiment": "Myocardial substrate uptake and metabolic parameters in dogs with advanced DCM, 48 h infusion (Table 1)", "format": "in vivo, dog", "conditions": "for Glucose myocardial uptake / Lactate myocardial uptake / NE (transmyocardial norepinephrine uptake) / NEFA myocardial uptake: GLP-1 group (n = 9); for Insulin/Glucagon: ratio insulin (pmol/L) to glucagon (pg/ml), GLP-1 group", "method": "as §1"}, "[4]": {"test_system": "endothelial dependent coronary vasodilation", "experiment": "Coronary flow responses to acetylcholine and nitroglycerin in conscious dogs with advanced DCM after 48-hour infusion", "format": "in vivo, dog", "method": "FIGS. 7a and 7b show the effects of rGLP-1 on endothelial dependent coronary vasodilation in conscious dogs. Advanced DCM was associated with impaired coronary flow responses to acetylcholine. These responses were restored following 48-hour infusion of rGLP-1. The response to the non-endothelial dependent vasodilator, nitroglycerin was unaffected.\nas §1"}, "[5]": {"test_system": "patients with large myocardial infarction (LVEF<35%)", "experiment": "72 hour continuous intravenous infusion in adults with severe acute myocardial infarction, LV function", "format": "in vivo, human", "conditions": "1.5 pmol/kg/min i.v. 72 hours after percutaneous coronary intervention; ten adults vs eleven on standard care", "method": "The effects of continuous intravenous infusion of GLP-1 (1.5 pmol/kg/min) intravenously for 72 hours was studied in ten adults presenting with severe acute myocardial infarction. These were compared to eleven adults with similar large myocardial infarction (LVEF<35%) all of whom underwent percutaneous coronary intervention and subsequently were treated for 72 hours thereafter."}, "[6]": {"conditions": "hyperglycemia 10.4 mmol/l, hyperglycemia alone ~280 pmol/l"}, "[7]": {"conditions": "hyperglycemia 187 mg/dl, hyperglycemia alone 47 μU/ml"}, "[8]": {"conditions": "1.5 pmol/kg/min i.v. 48 hours, vs saline"}, "[9]": {"conditions": "Baseline (before CHF and infusion)"}, "[10]": {"conditions": "advanced DCM, vs saline controls"}}, "note": "Like-named read-outs stand apart in the source and are kept apart here."}
{"compound": "CC(CCc1ccc(O)cc1)NCCc1ccc(O)c(O)c1", "note": "(centres unmarked) [Dobutamine]", "values": [{"measurement": "hemodynamic effects of graded infusion, heart failure", "setting": "[1]; dogs with heart failure (advanced DCM), graded infusion", "value": "de-sensitized effects"}, {"measurement": "hemodynamic effects of graded infusion, normal dogs", "setting": "[1]; normal dogs, graded infusion", "value": "predictable effects"}]}
{"compound": "exendin-4 [excendin 4]", "values": [{"measurement": "blood pressure and heart rate", "setting": "restrained rats", "value": "hypertension and tachycardia"}]}
{"compound": "glucose-dependent insulinotropic polypeptide [GIP]", "values": [{"measurement": "plasma insulin levels", "setting": "plasma insulin; [6]", "value": "~900", "unit": "pmol/L"}, {"measurement": "plasma insulin levels", "setting": "plasma insulin; [7]", "value": 150, "unit": "μU/ml"}, {"measurement": "insulinotropic action during euglycemia", "setting": "plasma insulin; normal subjects, euglycemia", "value": "not"}]}
{"compound": "GLP-1 (7–36 amide)", "values": [{"measurement": "effects on left ventricular pressure, left ventricular dP/dt, cardiac output, heart rate", "setting": "[1]", "value": "no significant, dose related effects"}, {"measurement": "effects on left ventricular pressure, left ventricular dP/dt, cardiac output, heart rate", "setting": "[1]; listed as rGLP-1", "value": "no acute hemodynamic effects"}, {"measurement": "hemodynamic effects of chronic infusion", "setting": "normal dogs", "value": "no significant hemodynamic effects"}, {"measurement": "LVEDP", "setting": "[2]; [8]", "value": "reduction"}, {"measurement": "cardiac output", "setting": "[2]; [8]", "value": "improvement"}, {"measurement": "contractility", "setting": "[2]; [8]", "value": "improvement"}, {"measurement": "heart rate", "setting": "[2]; [8]", "value": "reduction"}, {"measurement": "left ventricular pressure", "setting": "[2]; [8]", "value": "restoration"}, {"measurement": "myocardial sympathetic activity", "setting": "[2]; infusion compared to saline", "value": "suppression"}, {"measurement": "Glucose myocardial uptake", "setting": "[3]; 24 hrs of infusion", "value": "8.72 ± 1.05", "unit": "µmol/min"}, {"measurement": "Lactate myocardial uptake", "setting": "[3]; 24 hrs of infusion", "value": "3.61 ± 0.62", "unit": "µmol/min"}, {"measurement": "NE (transmyocardial norepinephrine uptake)", "setting": "[3]; 24 hrs of infusion", "value": "26.3 ± 3.1", "unit": "pmol/min"}, {"measurement": "NEFA myocardial uptake", "setting": "[3]; 24 hrs of infusion", "value": "4.53 ± 0.58", "unit": "µmol/min"}, {"measurement": "Glucose myocardial uptake", "setting": "[3]; 48 hrs of infusion", "value": "7.00 ± 0.94", "unit": "µmol/min"}, {"measurement": "Lactate myocardial uptake", "setting": "[3]; 48 hrs of infusion", "value": "4.04 ± 0.74", "unit": "µmol/min"}, {"measurement": "NE (transmyocardial norepinephrine uptake)", "setting": "[3]; 48 hrs of infusion", "value": "30.5 ± 4.9", "unit": "pmol/min"}, {"measurement": "NEFA myocardial uptake", "setting": "[3]; 48 hrs of infusion", "value": "5.16 ± 0.73", "unit": "µmol/min"}, {"measurement": "Glucose myocardial uptake", "setting": "[3]; [9]", "value": "6.67 ± 1.22", "unit": "µmol/min"}, {"measurement": "Lactate myocardial uptake", "setting": "[3]; [9]", "value": "4.78 ± 1.04", "unit": "µmol/min"}, {"measurement": "NE (transmyocardial norepinephrine uptake)", "setting": "[3]; [9]", "value": "30.9 ± 4.8", "unit": "pmol/min"}, {"measurement": "NEFA myocardial uptake", "setting": "[3]; [9]", "value": "5.23 ± 0.83", "unit": "µmol/min"}, {"measurement": "Glucose myocardial uptake", "setting": "[3]; CHF (before infusion)", "value": "3.44 ± 0.81", "unit": "µmol/min"}, {"measurement": "Lactate myocardial uptake", "setting": "[3]; CHF (before infusion)", "value": "2.64 ± 0.91", "unit": "µmol/min"}, {"measurement": "NE (transmyocardial norepinephrine uptake)", "setting": "[3]; CHF (before infusion)", "value": "18.7 ± 3.6", "unit": "pmol/min"}, {"measurement": "NEFA myocardial uptake", "setting": "[3]; CHF (before infusion)", "value": "3.17 ± 0.61", "unit": "µmol/min"}, {"measurement": "myocardial glucose uptake", "setting": "[3]; [10]", "value": "enhanced"}, {"measurement": "ratio of insulin (pmol/L) to glucagon (pg/ml)", "setting": "[3]; [10]", "value": "significant increase"}, {"measurement": "Insulin/Glucagon", "setting": "[3]; 48 hrs of infusion", "value": "3.12 ± 0.24"}, {"measurement": "Insulin/Glucagon", "setting": "[3]; [9]", "value": "1.36 ± 0.21"}, {"measurement": "Insulin/Glucagon", "setting": "[3]; CHF (before infusion)", "value": "1.79 ± 0.29"}, {"measurement": "plasma insulin levels", "setting": "[3]; setting of euglycemia, advanced DCM", "value": "little effect"}, {"measurement": "endothelial dependent vasodilatation (coronary flow) response to acetylcholine", "setting": "[4]", "value": "restoration"}, {"measurement": "response to the non-endothelial dependent vasodilator nitroglycerin", "setting": "[4]", "value": "unaffected"}, {"measurement": "endothelial dependent vasodilatation (coronary flow) response to acetylcholine", "setting": "[4]; listed as rGLP-1", "value": "restored"}, {"measurement": "left ventricular function", "setting": "[5]", "value": "improvement"}, {"measurement": "plasma insulin levels", "setting": "plasma insulin; [6]", "value": "~2000", "unit": "pmol/L"}, {"measurement": "plasma insulin levels", "setting": "plasma insulin; [7]", "value": 333, "unit": "μU/ml"}, {"measurement": "relative potency as incretin", "setting": "plasma insulin; hyperglycemia, infusion", "value": "more potent than GIP"}]}
